Measurements: patent US20190192543A1, “NOVEL USE” (IDOGEN AB, priority 2016, published 2019)

Test system: IDO1 gene expression in THP-1 cells
Assay: Induction of IDO1 in THP-1 cells (RT-qPCR)
Format: cell-based, human
Details: for IDO1 expression (fold change): 96 hours, normalised to HPRT1, vs DMSO control
Procedure: THP-1 cells were harvested from appropriate number of T75 flasks. Cells were counted in a Bürker chamber, stained with 0.4% Trypan Blue. The appropriate number of cells for each experiment were transferred to a new tube and centrifuged at 1200 rpm, 5 min at room temperature (RT). The supernatant was discarded and fresh RPMI with 5% FBS were added to get a cell concentration of 2×10^5 cells/mL. The compound was added to the five separate wells in 6-well plates such that five different final concentrations were obtained after adding the cells. A control was added to one well in the 6-well plate to which cells were added. 1×10^6 cells per well were seeded out to achieve a total volume of 5 mL per well. The cells were incubated at 37° C. in 5% CO2 for 96 hours. After 96 hours the assay was stopped and the cells were lysed for the isolation of RNA.
Total RNA was extracted from THP-1 cells using the RNA RNeasy Mini extraction kit (Qiagen), according to the manufacturer's instructions. A SuperScript® VILO™ RT-kit (Thermo Fisher) was used to reverse transcribe 1 μg of total RNA to cDNA and qPCR was performed. The primers used for amplification of the human IDO1 gene were 5″-[…]-3″ (forward; SEQ ID No. 1) and 5″-[…]-3″ (reverse; SEQ ID No. 2). The primers used for amplification of the endogenous reference gene for human HPRT1 were 5″-[…]-3″ (forward; SEQ ID No. 3) and 5″-[…]-3″ (reverse; SEQ ID No. 4). In brief, RT-qPCR was performed in 20 μl reaction, consisting 10 μl PowerUp SYBR Green Master Mix, 0.5 μM of each primer, 4 μl diluted cDNA for amplification of IDO1 and 1.5 μl diluted cDNA for amplification of HPRT1. An iCycler iQ real-time detection system (Stratagene, Mx3000P, La Jolla, Calif., USA) with the following thermal profile: UDG incubation at 50° C. for 2 min, then denaturation at 95° C. for 5 min, followed by 45 cycles at 94° C. for 15 s, 58° C. for 30 s, and 60° C. for 30 s, was used to perform thermocycling and real-time detection of PCR products. After amplification a melting curve analysis was performed. The RT-qPCR experiments were always run in triplicate. IDO1 was normalised to the geometric means of two HPRT1 reference gene, using the ΔCt method. Within-group comparisons were normalized to one control sample, using the ΔΔCt method.
The procedure under “Induction of IDO1 in THP-1 cells” was followed such that the final concentrations set out in Table 1 were obtained.
Following RNA extraction and quantification of gene expression by RT-qPRC, as described above, induction of IDO1 gene expression using Samples 1 to 6 was investigated.

## Nc1ncn([C@H]2C[C@H](OP(=O)(O)OC[C@H]3O[C@@H](n4cnc5c(=O)[nH]c(N)nc54)C[C@@H]3O)[C@@H](CO)O2)c(=O)n1 [guadecitabine]
0.1 micromolar
  IDO1 expression (fold change): 2.1 fold change
0.3 micromolar
  IDO1 expression (fold change): 4.7 fold change
1 micromolar
  IDO1 expression (fold change): 34 fold change
3 micromolar
  IDO1 expression (fold change): 68 fold change
10 micromolar
  IDO1 expression (fold change): 74 fold change
Guadecitabine alone, 0.1-10 micromolar, highest induction at 10 micromolar
  increase of IDO1 gene expression (maximum over tested concentrations): up to 74 fold
